The text below walks through data of patent EP4556004A1 (priority 2023, dated 2025).

In general, IC50 refers to the midpoint of a concentration-inhibition curve. Higher therefore signals weaker potency.

The subject of one assay is HCoV-229E.
Experiment: not given
The format is cell-based, Human coronavirus 229E.
Details: not given
Turning to `CC(C)=CCC1=C(O)C(C(=O)C(C)C)=C(O)C(CC=C(C)C)(CC=C(C)C)C1=O` [Colupulone, Co-lupulone], the “reduction of HCoV-229E infection” value is listed as “able to reduce”.

The subject of a further assay is HCoV-229E. In words: microbe, parasite or virus in culture.
Details: not given
It counts as cell-based, Human coronavirus 229E.
Take `CC(C)=CCc1c(O)cc(O)c(C(=O)C(C)C)c1O` [AH56-F3, 2-methyl-1-(2,4,6-trihydroxy-3-(3-methylbut-2-en-1-yl)phenyl)propan-1-one]: the IC50 is above 24 µM.

The compound `CC(C)=CCc1c(O)cc(O)c(C(=O)C(C)C)c1O` [AH62-F2, 2-methyl-1-(2,4,6-trihydroxy-3-(3-methylbut-2-en-1-yl)phenyl)propan-1-one] returned an IC50 below 3 µM.

The compound `CC(C)=CCC1=C(O)C(C(=O)C(C)C)=C(O)C(CC=C(C)C)(CC=C(C)C)C1=O` [Colupulone, Co-lupulone] yielded an IC50 below 3 µM.

Ad-lupulone displayed a half-inhibitory concentration (IC50) below 12 µM.

Staying with this assay, now noted: Human coronavirus 229E, Huh-7.
Compound `CC(C)=CCC1=C(O)C(CC=C(C)C)(CC=C(C)C)C(=O)C(C(=O)CC(C)C)=C1O` [AH6-F2, 3,5-dihydroxy-4,6,6-tris(3-methylbut-2-en-1-yl)-2-(3-methylbutanoyl)cyclohexa-2,4-dien-1-one] registered an IC50 below 3 µM.

For the compound `CCC(C)C(=O)C1=C(O)C(CC=C(C)C)=C(O)C(CC=C(C)C)(CC=C(C)C)C1=O` (stereo not drawn) [AH8-F2, 3,5-dihydroxy-4,6,6-tris(3-methylbut-2-en-1-yl)-2-(2-methylbutanoyl)cyclohexa-2,4-dien-1-one], the IC50 is below 12 µM.

The compound `CCCC(=O)C1=C(O)C(CC=C(C)C)=C(O)C(CC=C(C)C)(CC=C(C)C)C1=O` [AH10-F2, 2-butyryl-3,5-dihydroxy-4,6,6-tris(3-methylbut-2-en-1-yl)cyclohexa-2,4-dien-1-one] had an IC50 below 3 µM.

As for `CC(=O)C1=C(O)C(CC=C(C)C)=C(O)C(CC=C(C)C)(CC=C(C)C)C1=O` [AH16-F2, 2-acetyl-3,5-dihydroxy-4,6,6-tris(3-methylbut-2-en-1-yl)cyclohexa-2,4-dien-1-one], the IC50 was below 12 µM.

As to `CCC(=O)C1=C(O)C(CC=C(C)C)=C(O)C(CC=C(C)C)(CC=C(C)C)C1=O` [AH17-F2, 3,5-dihydroxy-4,6,6-tris(3-methylbut-2-en-1-yl)-2-propionylcyclohexa-2,4-dien-1-one], the IC50 is above 24 µM.

The compound `CCCCC(=O)C1=C(O)C(CC=C(C)C)=C(O)C(CC=C(C)C)(CC=C(C)C)C1=O` [AH18-F4, 3,5-dihydroxy-4,6,6-tris(3-methylbut-2-en-1-yl)-2-pentanoylcyclohexa-2,4-dien-1-one] came in with an IC50 below 12 µM.

Take `CC(C)=CCC1=C(O)C(CC=C(C)C)(CC=C(C)C)C(=O)C(C(=O)CCC(C)C)=C1O` [AH39-F1, 3,5-dihydroxy-4,6,6-tris(3-methylbut-2-en-1-yl)-2-(4-methylpentanoyl)cyclohexa-2,4-dien-1-one]: the IC50 was below 12 µM.

`CCC(C)CC(=O)C1=C(O)C(CC=C(C)C)=C(O)C(CC=C(C)C)(CC=C(C)C)C1=O` (stereo not drawn) [AH40-F1, 3,5-dihydroxy-4,6,6-tris(3-methylbut-2-en-1-yl)-2-(3-methylpentanoyl)cyclohexa-2,4-dien-1-one] gave an IC50 below 12 µM.

In turn, `CC(C)=CCC1=C(O)C(CC=C(C)C)(CC=C(C)C)C(=O)C(C(=O)C=Cc2ccccc2)=C1O` [AH41-F1, 2-cinnamoyl-3,5-dihydroxy-4,6,6-tris(3-methylbut-2-en-1-yl)cyclohexa-2,4-dien-1-one] registered an IC50 below 12 µM.

In the case of `CC(C)=CCC1=C(O)C(CC=C(C)C)(CC=C(C)C)C(=O)C(C(=O)/C=C/c2ccc(C(F)(F)F)cc2)=C1O` [AH44-F2, (E)-3,5-dihydroxy-4,6,6-tris(3-methylbut-2-en-1-yl)-2-(3-(4-(trifluoromethyl)phenyl)acryloyl)cyclohexa-2,4-dien-1-one], the IC50 is below 12 µM.

The compound `CC(C)=CCC1=C(O)C(CC=C(C)C)(CC=C(C)C)C(=O)C(C(=O)c2ccccc2)=C1O` [AH47-F3, 2-benzoyl-3,5-dihydroxy-4,6,6-tris(3-methylbut-2-en-1-yl)cyclohexa-2,4-dien-1-one] registered an IC50 below 12 µM.

`CC(=O)c1c(O)c(CC=C(C)C)c(O)c(CC=C(C)C)c1O` [AH52-F1, 1-(2,4,6-trihydroxy-3,5-bis-(3-methylbut-2-en-1-yl)phenyl)ethan-1-one]: the IC50 was above 24 µM.

`CC(C)=CCC1C(=O)C(C(=O)CC(C)C)=C(O)C=C1O` (stereo not drawn) [AH55-F3, 3,5-dihydroxy-6-(3-methylbut-2-en-1-yl)-2-(3-methylbutanoyl)cyclohexa-2,4-dien-1-one] yielded an IC50 below 24 µM.

Take `CCC(C)C(=O)c1c(O)cc(O)c(CC=C(C)C)c1O` (stereo not drawn) [AH57-F3, 2-methyl-1-(2,4,6-trihydroxy-3-(3-methylbut-2-en-1-yl)phenyl)butan-1-one]: the IC50 is below 24 µM.

Turning to `CC(C)=CCC1(CC=C(C)C)C(=O)C(C(=O)C(C)C)=C(O)C(C(=O)C(C)C)=C1O` [AH66-F1, 1,1'-(2,4-dihydroxy-5,5-bis(3-methylbut-2-en-1-yl)-6-oxocyclohexa-1,3-diene-1,3-diyl)bis(2-methylpropan-1-one)], the IC50 is below 12 µM.

Turning to `CC(C)=CCC1=C(O)C(CC=C(C)C)(CC=C(C)C)C(=O)C(C(=O)CCCCCNc2ccc([N+](=O)[O-])c3nonc23)=C1O` [AH77-F1, 3,5-dihydroxy-4,6,6-tris(3-methylbut-2-en-1-yl)-2-(6-((7-nitrobenzo[c][1,2,5]oxadiazol-4-yl)amino)hexanoyl)cyclohexa-2,4-dien-1-one], the IC50 is below 12 µM.

Compound `CC(C)=CCC1=C(O)[C@](O)(CC=C(C)C)C(=O)C(C(=O)C(C)C)=C1O` [Co-humulone, reference compound] yielded a half-inhibitory concentration (IC50) above 24 µM.

`CC(C)=CCC1=C(O)[C@](O)(CC=C(C)C)C(=O)C(C(=O)CC(C)C)=C1O` [Humulone, reference compound] yielded a half-inhibitory concentration (IC50) above 24 µM.

In the case of `CC(C)=CCC1(CC=C(C)C)C(=O)CC(O)=C(C(=O)CC(C)C)C1=O` [LB68-F3, 5-hydroxy-2,2-bis(3-methylbut-2-en-1-yl)-4-(3-methylbutanoyl)cyclohex-4-ene-1,3-dione], the IC50 was below 12 µM.

On to `CC(C)=CCC1=C(O)C(CC=C(C)C)(CC=C(C)C)C(=O)C(C(=O)C(C)C)=C1O` [LB.70-F2, 3,5-dihydroxy-4,6,6-tris(3-methylbut-2-en-1-yl)-2-(2-methylpropanoyl)cyclo-hexa-2,4-dien-1-one], for which the IC50 was below 3 µM.

With `CC(C)=CCC1=C(O)C(C(=O)CC(C)C)=C(O)C(CC=C(C)C)(CC=C(C)C)C1=O` [Lupulone], the IC50 was below 3 µM.

Another assay deals with SARS-CoV-2. In words: SARS-CoV-2 antiviral assay in human primary epithelial nasal cells (Mucilair). It counts as cell-based, severe acute respiratory syndrome coronavirus-2.
Details: not given
`CC(C)=CCC1=C(O)C(C(=O)C(C)C)=C(O)C(CC=C(C)C)(CC=C(C)C)C1=O` [Colupulone, Co-lupulone]: the “reduction of SARS-CoV-2 infection” value is listed as “able to reduce”.
